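Cells were grown in 96-well plates and exposed to each compound for 48 hours at five concentrations; endpoints were interpolated linearly between bracketing concentrations, or set to the highest concentration if not reached. GI50 is the concentration that inhibits growth by half.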 Calls of active or inactive are those of the source. Rule as the data show it: active = GI50 up to about 1.1 µM and inactive = higher.
Tests used:
Assay in all cases: inhibition of tumour cell growth, NCI panel, 48 h
[1] = system: SNB-78
[2] = system: RPMI-8226
[3] = system: DMS-273
[4] = system: KM-20L2
[5] = system: XF498
[6] = system: SK-OV-3
[7] = system: HT-29
[8] = system: A498
[9] = system: KM12
[10] = system: HOP-18
[11] = system: IGROV-1
[12] = system: SNB-75
[13] = system: OVCAR-8
[14] = system: MOLT-4
[15] = system: RXF 393
[16] = system: A549
[17] = system: LOX IMVI

Compound | GI50 [1] | GI50 [2] | GI50 [3] | GI50 [4] | GI50 [5] | GI50 [6] | GI50 [7] | GI50 [8] | GI50 [9] | GI50 [10] | GI50 [11] | GI50 [12] | GI50 [13] | GI50 [14] | GI50 [15] | GI50 [16] | GI50 [17]
CC1=NN(c2ccccc2)C(=O)C1/N=N/c1ccc(Br)c(C)c1 (stereo not given) | > 100 µM (inactive) | > 100 µM (inactive) | > 100 µM (inactive) | > 100 µM (inactive) | > 100 µM (inactive) | > 100 µM (inactive) | > 100 µM (inactive) | > 100 µM (inactive) | > 100 µM (inactive) | 0.0562 µM (active) | > 100 µM (inactive) | > 100 µM (inactive) | > 100 µM (inactive) | 71.3 µM (inactive) | > 100 µM (inactive) | > 100 µM (inactive) | –
COC(=O)C(C(=O)OC)C1CCCC(=O)C1 (stereo not given) | > 100 µM (inactive) | > 100 µM (inactive) | > 100 µM (inactive) | > 100 µM (inactive) | > 100 µM (inactive) | > 100 µM (inactive) | > 100 µM (inactive) | > 100 µM (inactive) | > 100 µM (inactive) | > 100 µM (inactive) | > 100 µM (inactive) | > 100 µM (inactive) | > 100 µM (inactive) | > 100 µM (inactive) | > 100 µM (inactive) | > 100 µM (inactive) | > 100 µM (inactive)
NC1=NC2=C(CCCC2)C(c2cccs2)S1 (stereo not given) | > 100 µM (inactive) | 61.7 µM (inactive) | > 100 µM (inactive) | > 100 µM (inactive) | > 100 µM (inactive) | > 100 µM (inactive) | > 100 µM (inactive) | 72.6 µM (inactive) | > 100 µM (inactive) | 33.5 µM (inactive) | > 100 µM (inactive) | > 100 µM (inactive) | > 100 µM (inactive) | 36.8 µM (inactive) | 38.5 µM (inactive) | 93.3 µM (inactive) | –
CCCC1C(=O)CCc2c(OC)ccc(OC)c21 (stereo not given) | > 100 µM (inactive) | 65.9 µM (inactive) | > 100 µM (inactive) | > 100 µM (inactive) | > 100 µM (inactive) | > 100 µM (inactive) | > 100 µM (inactive) | > 100 µM (inactive) | > 100 µM (inactive) | 2.61 µM (inactive) | > 100 µM (inactive) | 57.5 µM (inactive) | 92.7 µM (inactive) | 49.1 µM (inactive) | > 100 µM (inactive) | > 100 µM (inactive) | > 100 µM (inactive)
Cc1ccc(NC(=O)CC/C(CC(=O)C(C)(C)C)=N/Nc2nnc(C)n2N)cc1C | > 100 µM (inactive) | > 100 µM (inactive) | 95.1 µM (inactive) | > 100 µM (inactive) | > 100 µM (inactive) | > 100 µM (inactive) | > 100 µM (inactive) | > 100 µM (inactive) | 84.9 µM (inactive) | > 100 µM (inactive) | > 100 µM (inactive) | > 100 µM (inactive) | > 100 µM (inactive) | 66.5 µM (inactive) | > 100 µM (inactive) | > 100 µM (inactive) | > 100 µM (inactive)
COC(=O)c1cc(-c2ccc(OC)c(OC)c2)oc1-c1ccc(OC)c(OC)c1 | 31.7 µM (inactive) | 33.3 µM (inactive) | 67.1 µM (inactive) | 53.3 µM (inactive) | 37.3 µM (inactive) | 38.9 µM (inactive) | 35.8 µM (inactive) | 18.7 µM (inactive) | 41.6 µM (inactive) | 29.2 µM (inactive) | 45.5 µM (inactive) | 33.5 µM (inactive) | 44.6 µM (inactive) | 32.7 µM (inactive) | 19.1 µM (inactive) | 44 µM (inactive) | 28.1 µM (inactive)
NC1=NCCC1(c1ccccc1)c1ccccn1 (stereo not given) | > 100 µM (inactive) | > 100 µM (inactive) | > 100 µM (inactive) | > 100 µM (inactive) | > 100 µM (inactive) | > 100 µM (inactive) | > 100 µM (inactive) | > 100 µM (inactive) | > 100 µM (inactive) | > 100 µM (inactive) | > 100 µM (inactive) | > 100 µM (inactive) | > 100 µM (inactive) | > 100 µM (inactive) | > 100 µM (inactive) | > 100 µM (inactive) | –
CC1=C(c2cc(C(=O)Nc3ccc(Cl)cc3)nc(S)n2)Sc2ccccc2N1 | > 100 µM (inactive) | – | > 100 µM (inactive) | > 100 µM (inactive) | > 100 µM (inactive) | > 100 µM (inactive) | > 100 µM (inactive) | > 100 µM (inactive) | > 100 µM (inactive) | > 100 µM (inactive) | > 100 µM (inactive) | > 100 µM (inactive) | > 100 µM (inactive) | – | > 100 µM (inactive) | > 100 µM (inactive) | > 100 µM (inactive)
CC(N)C(C)c1ccccc1 (stereo not given) | > 100 µM (inactive) | > 100 µM (inactive) | > 100 µM (inactive) | > 100 µM (inactive) | > 100 µM (inactive) | > 100 µM (inactive) | > 100 µM (inactive) | > 100 µM (inactive) | > 100 µM (inactive) | > 100 µM (inactive) | > 100 µM (inactive) | > 100 µM (inactive) | > 100 µM (inactive) | > 100 µM (inactive) | > 100 µM (inactive) | > 100 µM (inactive) | > 100 µM (inactive)
Cc1cc(NS(=O)(=O)c2ccc(NC(=O)c3cccc4c(Nc5ccc(S(=O)(=O)Nc6cc(C)on6)cc5)c5ccc(Cl)cc5nc34)cc2)no1 | 91.6 µM (inactive) | 47.1 µM (inactive) | 85.1 µM (inactive) | 74.1 µM (inactive) | 56.6 µM (inactive) | > 100 µM (inactive) | > 100 µM (inactive) | 55 µM (inactive) | 69.2 µM (inactive) | 14.9 µM (inactive) | 59.4 µM (inactive) | 19.7 µM (inactive) | > 100 µM (inactive) | 56 µM (inactive) | 29.2 µM (inactive) | 61.1 µM (inactive) | 53.7 µM (inactive)
